As usually defined, the IC50 is the concentration needed to halve the response being measured.

The source of these data is patent US9969775B2, “CGRP antagonist peptides” (Ferring B.V., priority 2015, dated 2018).

For assay [1], the target named is T1, hCGRP receptor (CALCRL:RAMP1) (Homo sapiens, UniProt O60894+Q16602).
T1 construct: host or cells: GeneBLAzer CALCRL:RAMP1-CRE-bla Freestyle 293F
Briefly: CGRP receptor antagonist activity measured by cAMP assay (HTRF). It counts as cell-based. As to conditions: for Emax: read-out: hCGRP-R Efficacy Antag (%) Ave. In general terms: Cyclic AMP is a second messenger, typically raised through Gs and lowered through Gi signalling.

In assay [2] the target is T2, hAM2 receptor (CALCRL:RAMP3) (Homo sapiens, UniProt O60896+Q16602).
T2 construct: expressed in transfected cells; host or cells: GeneBLAzer CALCRL:RAMP3-CRE-bla Freestyle 293F
Briefly: AM2 receptor antagonist activity measured by cAMP assay (HTRF). The format is cell-based. Conditions: for Emax: read-out: hAM2-R Efficacy Antag (%) Ave.
Description: Antagonist activity for the adrenomedullin receptor AM2 was determined using the method described in Example 6 above, with the following modifications. Instead of GeneBLAzer® CALCRL:RAMP1-CRE-bla Freestyle™ 293F cells, GeneBLAzer® CALCRL:RAMP3-CRE-bla Freestyle™ 293F cells were used to test activity at hAM2 receptors. The agonist was human adrenomedullin, instead of α-CGRP.
In Table 5, the selectivity ratio for hCGRP over hAM2 is calculated as hCGRP-R IC50/hAM2-R IC50.

Like-named read-outs stand apart in the source and are kept apart here. Bridge positions count the residues as written; N and C are the ends. Square brackets hold non-standard residues; d marks the D form. Peptide text beside a SMILES is read from it. * marks the point of attachment. Benzoyl(4-F) = O=C(c1ccc(F)cc1)*; 3Pal = N[C@@H](Cc1cccnc1)C(=O)O; Agp = N=C(N)NC[C@H](N)C(=O)O; Dap = NC[C@H](N)C(=O)O; Bz = O=C(c1ccccc1)*

T2 sequence (Q16602 23-461): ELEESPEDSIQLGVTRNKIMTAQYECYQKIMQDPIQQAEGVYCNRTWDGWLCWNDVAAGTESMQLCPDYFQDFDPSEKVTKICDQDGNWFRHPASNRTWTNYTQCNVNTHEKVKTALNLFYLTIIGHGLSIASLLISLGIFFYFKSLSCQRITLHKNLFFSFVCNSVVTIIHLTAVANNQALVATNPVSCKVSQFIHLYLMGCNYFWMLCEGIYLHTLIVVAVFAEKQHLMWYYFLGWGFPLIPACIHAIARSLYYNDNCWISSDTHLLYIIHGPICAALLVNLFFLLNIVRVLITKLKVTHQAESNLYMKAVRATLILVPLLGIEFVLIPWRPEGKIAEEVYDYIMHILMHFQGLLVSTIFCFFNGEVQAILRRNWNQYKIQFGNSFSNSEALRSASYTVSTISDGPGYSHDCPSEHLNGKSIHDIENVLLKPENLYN
T2 sequence (O60896 24-148): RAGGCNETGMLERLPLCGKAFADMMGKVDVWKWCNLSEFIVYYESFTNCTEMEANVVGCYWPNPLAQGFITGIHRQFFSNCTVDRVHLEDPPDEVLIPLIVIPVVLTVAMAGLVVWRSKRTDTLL
T1 sequence (Q16602 23-461): as the sequence (Q16602 23-461) above
T1 sequence (O60894 27-148): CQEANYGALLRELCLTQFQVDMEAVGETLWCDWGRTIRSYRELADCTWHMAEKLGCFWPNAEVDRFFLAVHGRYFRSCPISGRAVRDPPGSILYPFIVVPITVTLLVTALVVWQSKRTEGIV

Regarding `CC(C)[C@@H]1NC(=O)[C@H](CC(=O)O)NC(=O)[C@H](CNC(=N)N)NC(=O)[C@@H](NC(=O)[C@H](Cc2ccc(O)cc2)NC(=O)[C@H](NC(=O)c2ccc(F)cc2)C(C)C)CSSC[C@@H](C(=O)N[C@@H](Cc2cccnc2)C(N)=O)NC(=O)[C@H](Cc2ccccc2)NC(=O)[C@@H]2CCCN2C(=O)CNC1=O` [Ref. Cpd. 1, Bz(4-F)-D-Val-Tyr-c(Cys-Agp-Asp-Val-Gly-Pro-Phe-Cys)-3Pal-NH2, reference compound] ({Benzoyl(4-F)}-[dV]YC[Agp]DVGPFC[3Pal]-NH2; disulfide 3-10), the Emax in assay [1] (% MPE: percent of the maximal possible effect, agonist human α-CGRP) was 100%; in assay [2] (% MPE: percent of the maximal possible effect, agonist human adrenomedullin) it was 98%.
Consider `CC(C)[C@@H]1NC(=O)[C@H](CC(=O)O)NC(=O)[C@H](CN)NC(=O)[C@@H](NC(=O)[C@H](Cc2ccc(O)cc2)NC(=O)[C@H](NC(=O)c2ccccc2)C(C)C)CSSC[C@@H](C(=O)N[C@@H](Cc2cccnc2)C(N)=O)NC(=O)[C@H](Cc2ccccc2)NC(=O)[C@@H]2CCCN2C(=O)CNC1=O` [Ref. Cpd. 2, Bz-D-Val-Tyr-c(Cys-Dpr-Asp-Val-Gly-Pro-Phe-Cys)-3Pal-NH2, reference compound] (Bz-[dV]YC[Dap]DVGPFC[3Pal]-NH2; disulfide 3-10), for which the IC50 was 0.52 nM in assay [1] (hCGRP-R IC50 Ave, GeneBLAzer CALCRL:RAMP1-CRE-bla Freestyle 293F cells, agonist human α-CGRP, 30 minutes) and 200 nM in assay [2] (hAM2-R IC50 Ave, GeneBLAzer CALCRL:RAMP3-CRE-bla Freestyle 293F cells, agonist human adrenomedullin). Further, the Emax in assay [1] and in assay [2] was 100% throughout. Besides, the “selectivity ratio CGRP/AM2” value in assay [2] (selectivity ratio for hCGRP over hAM2, calculated from the IC50 values) is 387.
